In PubChem BioAssay (NCI):
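Tested at 5 concentrations; 48 h exposure; 96-well plates; endpoints linearly interpolated, else capped at highest concentration. TGI denotes the concentration required for complete inhibition of growth.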 Where a SMILES comes first, the peptide text is derived from it. Side-chain parts run from the residue outwards. The star is where a group is joined. Cbz = O=C(OCc1ccccc1)*; Boc = CC(C)(C)OC(=O)*

Experiments:
Assay in all cases: DTP human tumour cell line panel, 48 h
SK-MEL-28 melanoma = system: SK-MEL-28 melanoma
IGROV1 ovarian = system: IGROV1 ovarian
SF-295 CNS = system: SF-295 CNS
CCRF-CEM leukemia = system: CCRF-CEM leukemia
UO-31 renal = system: UO-31 renal
COLO 205 colon = system: COLO 205 colon
OVCAR-4 ovarian = system: OVCAR-4 ovarian
RXF 393 renal = system: RXF 393 renal
MDA-MB-231 breast = system: MDA-MB-231 breast
MCF7 breast = system: MCF7 breast

Row | SMILES | TGI (SK-MEL-28 melanoma) | TGI (IGROV1 ovarian) | TGI (SF-295 CNS) | TGI (CCRF-CEM leukemia) | TGI (UO-31 renal) | TGI (COLO 205 colon) | TGI (OVCAR-4 ovarian) | TGI (RXF 393 renal) | TGI (MDA-MB-231 breast) | TGI (MCF7 breast)
1 | COc1ccc(CCCN2c3ccccc3Sc3ccccc32)cc1 | > 100 µM | > 100 µM | > 100 µM | > 100 µM | > 100 µM | > 100 µM | > 100 µM | > 100 µM |  | 
2 | Cn1c(COC(=O)NC2CCCCC2)c(COC(=O)NC2CCCCC2)c2ccc3cc(C=O)ccc3c21 |  | > 100 µM | > 100 µM | > 100 µM | > 100 µM | > 100 µM |  | > 100 µM | > 100 µM | > 100 µM
3 | CN(C)CC1CCCc2ccccc2C1=O (configuration not stated) | 13 µM | 4.17 µM | 32.5 µM |  | 3.45 µM | 12.5 µM | 2.01 µM | 11.7 µM | 9.7 µM | 0.644 µM
4 | NC1=Nc2ccccc2Sc2nc3ccccc3n21 |  | > 100 µM | > 100 µM | > 100 µM | 40.9 µM | > 100 µM | > 100 µM | > 100 µM | > 100 µM | > 100 µM
5 | COc1cc(C(O)C(=O)c2cnc3cc([N+](=O)[O-])ccc3n2)ccc1O (configuration not stated) |  | > 100 µM | > 100 µM | > 100 µM | > 100 µM | > 100 µM | > 100 µM | > 100 µM |  | 
6 | O=C(CC(c1ccccc1)C(C(=O)c1ccncc1)C(CC(=O)c1ccncc1)c1ccccc1)c1ccncc1 (configuration not stated) | > 100 µM | > 100 µM | 70.3 µM | > 100 µM | > 100 µM | > 100 µM |  |  | > 100 µM | 
7 | CC(C)(C)OC(=O)NC(CCCCNC(=O)CNC(=O)OCc1ccccc1)C(=O)NC(CCCCNC(=O)CNC(=O)OCc1ccccc1)C(=O)NC(CCCCNC(=O)CNC(=O)OCc1ccccc1)C(=O)NC(CCCCNC(=O)CNC(=O)OCc1ccccc1)C(=O)O (configuration not stated) (Boc-K([Gly-Cbz])K([Gly-Cbz])K([Gly-Cbz])K([Gly-Cbz])-OH; configuration not given here) | > 100 µM | > 100 µM |  | > 100 µM | > 100 µM |  |  |  | > 100 µM | > 100 µM
8 | O=C(NN1C(=O)C(Cl)C1c1ccccc1Cl)c1ccccc1O (configuration not stated) | > 100 µM |  | > 100 µM | > 100 µM | > 100 µM |  | > 100 µM | 88.2 µM |  | 
9 | O=C(Nc1ccc(Sc2ccc(N=Nc3c(O)c(S(=O)(=O)O)cc4cc(S(=O)(=O)O)ccc34)cc2)cc1)c1ccc(N=Nc2c(O)c(S(=O)(=O)O)cc3cc(S(=O)(=O)O)ccc23)cc1 | 86.5 µM | > 100 µM | > 100 µM | 64.3 µM | > 100 µM | 40.2 µM | > 100 µM | 71.7 µM |  | 
10 | COc1cc(C2c3cc(OC)c(OC)c(O)c3C(=O)C3CCC(=O)N32)cc(OC)c1OC (configuration not stated) | > 100 µM | > 100 µM | > 100 µM |  |  | 71.9 µM | > 100 µM |  | > 100 µM | > 100 µM
11 | CC1C(C#N)(C#N)C(C#N)=C(N)C1(C)[N+](=O)[O-] (configuration not stated) |  | > 100 µM | > 100 µM | > 100 µM | > 100 µM | > 100 µM | > 100 µM | > 100 µM | > 100 µM | > 100 µM
12 | Cn1nc2ccc3nccc(NCCNCCO)c3c2n1 | > 100 µM | > 100 µM | > 100 µM | > 100 µM | 90.9 µM | 44 µM | > 100 µM | 87.5 µM |  | 
